The text below walks through data of ChEMBL document CHEMBL1649242, “Molecular epidemiology of CTX-M-producing Escherichia coli isolates at a tertiary medical center in western Pennsylvania” (Antimicrob Agents Chemother, 2009).

Type in all cases: functional, organism-based
Test [1] deals with Escherichia coli. The test is described as follows: Antimicrobial activity against TEM-10 ESBL producing Escherichia coli clinical isolate by CLSI disk diffusion assay. (In general: A growth-free zone around the sample is the usual read-out of agar diffusion tests.)
For test [2], the system named is Escherichia coli. The test is described as follows: Antimicrobial activity against CTX-M ESBL producing Escherichia coli clinical isolate by CLSI disk diffusion assay.
The test system of test [3] is Escherichia coli. The test is described as follows: Antimicrobial activity against CTX-M-15 ESBL producing Escherichia coli clinical isolate by CLSI disk diffusion assay.
The test system of test [4] is Escherichia coli. In words: Antimicrobial activity against SHV-5 ESBL producing Escherichia coli clinical isolate by CLSI disk diffusion assay.
In test [5] the test system is Escherichia coli. In words: Antimicrobial activity against SHV-7 ESBL producing Escherichia coli clinical isolate by CLSI disk diffusion assay.

Molecules are shown by their SMILES. The source made the active and inactive calls. The rule behind the calls is not given here.

Turning to `CO/N=C(\C(=O)N[C@@H]1C(=O)N2C(C(=O)O)=C(COC(C)=O)CS[C@H]12)c1csc(N)n1`, the outcome in test [1] was Active.
For `CC(C)(O/N=C(\C(=O)N[C@@H]1C(=O)N2C(C(=O)[O-])=C(C[n+]3ccccc3)CS[C@H]12)c1csc(N)n1)C(=O)O`, the outcome in test [2], in test [3], in test [4], in test [5] and in test [1] was inactive.
